Assays:
[1] = system: DGAT2; test: In-vitro inhibitory activity test on target gene DGAT2 in Huh7 cells (siRNA transfection, mRNA by qPCR); type: cell-based, human; conditions: Table 3.3
Experimental: The test compound was prepared into a 20 µM mother liquor with PBS.
Huh7 cells. Huh7 cells were cultured in DMEM medium (Gibco article number 11965-092) containing 10% fetal bovine serum (FBS, ExCell Bio article number FSP500), 1% glutamine (GlutaMAX, Gibco article number 35050061), 1% NEAA (gibco article number 11140050), and 1% penicillin-streptomycin (HyClone article number SV30010).
Huh7 cells (2 × 10^4 cells/well) were inoculated into a 96-well plate, and siRNA was transfected into the cells while plating. […] At the same time, a compound-free control group containing RNAiMAX was set up.
24 hrs after transfection, the medium was removed and the cells were collected for RNA extraction. Total RNA was extracted by using RNeasy® 96 Kit (QIAGEN-74182) according to the instructions for use of the kit. cDNA was synthesized by using FastKing RT Kit (with gDNase) (Tiangen-KR116-02) according to the instructions.
The target cDNA was detected by qPCR, and GAPDH cDNA as an internal control was detected in parallel. 8 µL of prepared PCR reaction solution and 2 µL of sample cDNA were added into a 384 well plate. […]
The expression level of the target gene mRNA in each sample was calculated by ΔΔCt relative quantitative method. […]
GraphPad Prism software was used for plotting and analysis, and the inhibition rate was expressed as mean ± SD.

[2] = system: hDGAT2; test: Mouse model receiving hydrodynamic injection of DGAT2 plasmid via tail vein (Example 5, liver mRNA qPCR); type: in vivo; conditions: 3mpk subcutaneously day 0, HDI day 14, BALB/c mice
Experimental: BALB/c mice, female, 6-7 weeks old.
pcDNA-DGAT2 plasmid, having a concentration of 2 µg/µL, diluted with physiological saline for later use.
The hydrodynamic injection scheme of DGAT2 plasmid DNA via tail vein, the administration and the sample collection method were as follows.
Treatment with compound: The day of administration to mice was defined as day 0, the day before it was day -1, the day after it was day 1, and so on. On day 0, the mice were injected subcutaneously with 5 mL/kg of the solvent or the test compound, at a dosage of 3mpk.
Hydrodynamic injection of DGAT2 plasmid DNA solution into mice via tail vein: On day 4 or 14, the plasmid DNA was prepared with normal saline before injection, and stored at 4°C until use. All mice were injected with the plasmid DNA solution in a volume of 8% of the body weight (injection volume (mL)= body weight of mice (g) x 8%) in 5 seconds via the tail vein, and the weight of plasmid injected into each mouse was 10 µg.
Endpoint of the experiment and collection of liver samples: On day 5 or 15, that is, 24 hrs after the hydrodynamic injection of DGAT2 plasmid via the tail vein, all mice were euthanized by CO2 inhalation. After euthanasia, blood samples were collected from the heart and liver samples were collected. 2 liver tissues of about 70 mg were immersed in RNAlater®, and incubated overnight at 4 °C. The supernatant was discarded and the remainder was transferred to a freezer at -80°C, for mRNA detection later.
RNA in the liver was extracted with Trizol. The method was briefly described as follows: 50-70 mg of liver tissue and 1.2 mL of Trizol were homogenized with Qiagen Tissue Lyser II at 26 Hz for 2 min and lyzed at room temperature for 5 min. 1 mL of the supernatant was taken, added to 200 uL of chloroform, vigorously shaken for 15 s, allowed to stand for 3 min, and centrifuged. The supernatant was collected, added with an equal volume of isopropanol, and stood overnight at -20°C for precipitation. The precipitate was washed twice with 70% , and dissolved in water without RNase. The concentration of the RNA sample was determined by Nanodrop ONE and diluted to 400 ng/uL with water without RNase for reverse transcription.
The experimental steps of reverse transcription could be made reference to the instruction of FastKing cDNA first strand synthesis kit (genome clean). Briefly, a gDNA removal mixture was prepared according to Table 6. The mixture (5 µL/sample) and 400 ng/µL RNA sample were added to a 96-well PCR reaction plate, incubated at 42°C for 3 min, and cooled on ice. A mixture for reverse transcription was prepared according to Table 7. The reverse transcription mixture (10 µL/sample) and the DNA removal product of the previous step were added to a 96-well PCR reaction plate, for reverse transcription. Reaction conditions: 42°C for 15 min; and 95°C for 3 min. The cDNA was stored at 4°C for further analysis. Table 6. Ingredients for gDNA-removal reaction
Reaction conditions: 95°C for 10 min; and 40 cycles of 95°C for 15 s, and 60°C for 1 min. Table 8. Ingredients for qPCR Reaction (DGAT2)
The expression of the target gene in each sample was analyzed by relative quantification using ΔΔCt method. In this method, the Ct difference (ΔCt) between the target gene (DGAT2) and the internal reference gene (Neo) was determined, and the ΔCt value of the sample treated with the compound was compared with that of the control group.
The formula is: ΔCt = average Ct value of target gene−average Ct value of reference gene. [formula] [formula]
Data analysis: The data are expressed as the average of each group of mouse samples ± standard error. Unless otherwise specified, n=4 or 5. Student's t test was used for statistical analysis. Table 10.1 Test for evaluating the in-vivo inhibitory activity of siRNA compounds on target gene DGAT2 in mice model receiving hDGAT2 HDI 5 days after administration

[3] = system: DGAT2; test: Inhibitory activity of dS319 on the target gene DGAT2 in non-naive Cynomolgus macaque (Example 11); type: in vivo; conditions: for Average inhibition rate, %: 3mpk subcutaneous on days 1 and 29, liver
Experimental: In-vivo experiment: The in-vivo experimental designs for subcutaneous injection in non-naive Cynomolgus macaque, the administration and the sample collection method were shown in the table below. The day of administration to non-naive Cynomolgus macaque was defined as day 1, the day before it was day 0, the day after it was day 2, and so on. Each group had 2 animals. On days 1 and 29, the animals were injected subcutaneously with the solvent or 0.5 mL/kg of the test compound.
On day 0 (0 h) before administration by SC, and days 7, 29, 56 and 99 after administration, the liver sample was collected. Collection method: The animals was fasted for 12-16 hrs before sample collection. Collection of liver biopsy tissue: The collection process would be operated and recorded according to the SOP of the research institution.

dS319: sense (invAb)*acaccauaGfAfCfuauuugcuua[L96]; anti-sense Vpu*Af*a*GfcAfaauagUfcUfaUfgGfuGf* u
IC50 [1]: 0.0163 nM
Average inhibition rate, % Day 1 after HDI (day 15 after administration) [2]: 91.79%
Average inhibition rate, % ([3]; D7): 84.9%
Average inhibition rate, % ([3]; D28): 93.2%
Average inhibition rate, % ([3]; D56): 89.4%
Average inhibition rate, % ([3]; D99): 88%
inhibitory activity on the target gene DGAT2 ([3]; conclusion in words, non-naive Cynomolgus macaque): long-term inhibitory activity

Source: patent publication EP4722365A1, “DOUBLE-STRANDED NUCLEOTIDE COMPOUND FOR METABOLIC DISEASES AND USE THEREOF” (Visirna Therapeutics (Suzhou) Co., Ltd., priority 2023, dated 2024)
